Data: paper PMC12935919 (Frontiers in Pharmacology, 2026)
No end group written: not given here.

System: C2C12 cells
Assay: Indirect immunofluorescence (MyoD, MYH3) and fusion index
Type: cell-based
Experimental: Differentiated C2C12 cells cultured on coverslips were fixed at room temperature for 10 min with PBS containing 3.7% paraformaldehyde. Next, the samples were permeabilized with 0.25% Triton X-100/PBS for 10 min, blocked with 1% BSA/PBS, and incubated overnight with primary antibodies, anti-MyoD (Santa Cruz, sc-377460) and anti-MYH3 (Santa Cruz, sc-53091), followed by washing with PBS. The samples were then incubated for 1 h Alexa Fluor 488–conjugated goat anti-mouse IgG H&L (abcam, ab150113). Nuclei were stained with 4′,6-diamidino-2-phenylindole (DAPI; blue) for 5 min. The coverslips were mounted onto glass slides using an aqueous mounting solution (Biomeda, Foster City, CA, USA) and left to dry. Images were captured using a confocal laser-scanning microscope (LEICA, Wetzlar, Germany) at ×200 and ×400 magnifications for MYH3 and MyoD, respectively. The fluorescence intensity of each marker was quantified using ImageJ. For fusion index analysis, MYH3-stained images were used to quantify myotube formation by counting the number of DAPI-positive nuclei located within MYH3-positive multinucleated myotubes (defined as MYH3-positive cells containing ≥2 nuclei) and the total number of nuclei per field. Fusion index (%) was calculated as (nuclei within MYH3-positive multinucleated myotubes/total nuclei) × 100. Fusion index was calculated from multiple randomly selected fields captured under identical imaging settings and quantified in ImageJ.

[1] = Day 3, 100 μM, fluorescence intensity, mean ± SD

In the case of EAEYEHL-OH [Myoki], the “increase in MYH3 expression compared to the control” value [1] is reported as 191% ± 10.66%, the “increase in MyoD expression compared to the control” value [1] is reported as 190% ± 46.28% and the “increase in MYH3 fluorescence staining compared to the control” value (Day 6) is reported as 153%.
